Key:
[1] = tested on: Gram negative bacteria; details: cited from earlier work
[2] = tested on: human hepatocyte cell line (HepG2); details: 24 h
Experimental: Cell counting kit-8 (Sigma, CCK-8) assays were performed to assess the effect of compounds on cell viability. The assay is based on the reduction of a water-soluble tetrazolium salt (WST-8) by cellular dehydrogenases to a formazan dye which can be detected spectroscopically. 96-well plates were seeded with the human hepatocyte cell line (HepG2) at approximately 8×10^3 cells per well in Eagle's Minimum Essential Medium (EMEM) with Earle's salts and sodium bicarbonate supplemented with 10% heat-inactivated foetal bovine serum 2 mM glutamine and 1% non-essential amino acids (NEAA). The following day serial dilutions of compounds (dissolved and diluted in DMSO) were added to the cells in duplicates. Control wells included an ‘untreated’ control where cells were grown in the presence of 1% DMSO and a ‘medium only’ control (plus 1% DMSO). After 24 hours CCK-8 reagent (10 μl) was added to each well and cell viability was assessed by measuring the absorbance at a wavelength of 450 nm after 2-3h hours. Only living cells can reduce the tetrazolium salts into coloured formazan products. Results were expressed as 50% growth inhibition (TD50) values compared to ‘untreated’ control.

[3] = tested on: S. aureus (Oxford strain); assay: Growth assay for S. aureus (MIC); format: cell-based; details: TSB, 37° C., 22-24 hours
Experimental: (§1) Stock solution of the test compounds (20 mg/ml) in dimethyl sulfoxide (DMSO) were serially diluted in DMSO and each diluted compound added in duplicate to a 96-well plate to a final DMSO concentration of 2% (v/v). An overnight culture of S. aureus (Oxford strain) grown in tryptic soy broth (TSB) was diluted to approximately 5×10^7 cfu/ml and 150 μl of this sample was added to each well of the 96-well plates. Control wells included an ‘untreated’ control with bacteria in TSB in the presence of 2% DMSO and a negative sample (containing 150p1 TSB growth media in the presence of 2% DMSO). Plates were incubated in a shaking incubator at 37° C. for 22-24 hours and bacterial growth assessed by absorbance at a wavelength of 595 nm. The minimum inhibitory concentration (MIC) was defined as the lowest concentration of compound that inhibited growth compared to the no-treatment control.

[4] = tested on: P.aeruginosa (ATCC 27853); assay: Growth assay variation, P. aeruginosa (MIC); format: cell-based; details: ATCC 27853, CaMHB, incubation without shaking
Experimental: as §1
P.aeruginosa (ATCC 27853): use of 1/100 overnight dilution to set up assay, medium used: Cation adjusted Mueller Hinton broth (CaMHB); incubation without shaking.

[5] = tested on: E.coli (ATCC 25922); assay: Growth assay variation, E. coli (MIC); format: cell-based; details: ATCC 25922, Luria broth, incubation without shaking
Experimental: as §1
(§2) Klebsiella pneumoniae, Acinetobacter baumannnii or E.coli (ATCC 25922): use of 1/100 overnight dilution to set up assay, medium used: Luria broth (LB); incubation without shaking.

[6] = tested on: Klebsiella pneumoniae; assay: Growth assay variation, Klebsiella pneumoniae (MIC); format: cell-based; details: Luria broth, incubation without shaking
Experimental: as §1, §2

In the case of `CC[P](CC)(CC)=[Au][S][C@@H]1O[C@H](COC(C)=O)[C@@H](OC(C)=O)[C@H](OC(C)=O)[C@H]1OC(C)=O` [Auranofin], the “activity against the majority of Gram negative bacteria” value [1] is given as “not been shown to have any significant activity”.

With `Cc1nnc([S][Au]=[P](C)(C)C)n1C` [Compound 1] the “HepG2 cell TD50” value [2] was 2 µg/mL.

With `CNC(=O)C[S][Au]=[P](C)(C)C` [Compound 2] the “HepG2 cell TD50” value [2] was 6 µg/mL.

For `CCOC(=O)CNC(=O)[C@H](C[S][Au]=[P](C)(C)C)NC(=O)CC[C@H](NC(C)=O)C(=O)OCC` [Compound 3], the “HepG2 cell TD50” value [2] was 32 µg/mL.

For `C[P](C)(C)=[Au][S]c1ncco1` [Compound 4], the “HepG2 cell TD50” value [2] was 4 µg/mL.

With `COc1ccc([S][Au]=[P](C)(C)C)cc1OC` [Compound 5] the “HepG2 cell TD50” value [2] was 3 µg/mL.

With `C[P](C)(C)=[Au][S]c1ccccc1C(=O)O` [Compound 6] the “HepG2 cell TD50” value [2] was 11.5 µg/mL.

With `C[P](C)(C)=[Au][S]c1ncc[nH]1` [Compound 7] the “HepG2 cell TD50” value [2] was 6 µg/mL.

In the case of `C[P](C)(C)=[Au][S]c1cccc(C(F)(F)F)c1` [Compound 8], the “HepG2 cell TD50” value [2] is reported as 3 µg/mL.

With `C[P](C)(C)=[Au][S]c1ccccc1C(F)(F)F` [Compound 9] the “HepG2 cell TD50” value [2] was 3 µg/mL.

With `COc1cccc([S][Au]=[P](C)(C)C)c1` [Compound 10] the “HepG2 cell TD50” value [2] was 2 µg/mL.

With `C[P](C)(C)=[Au][S]c1ccc(S(C)(=O)=O)cc1` [Compound 11] the “HepG2 cell TD50” value [2] was 2 µg/mL.

With `CC[P](C)(C)=[Au][S]c1ncco1` [Compound 12] the “HepG2 cell TD50” value [2] was 5 µg/mL.

In the case of `C[P](C)(C)=[Au][S]c1ccc(C(F)(F)F)cn1` [Compound 13], the “HepG2 cell TD50” value [2] is reported as 2.5 µg/mL.

For `C[P](C)(C)=[Au][S]c1cc(C(F)(F)F)ccn1` [Compound 14], the “HepG2 cell TD50” value [2] was 3 µg/mL.

With `C[P](C)(C)=[Au][S]c1nnn[nH]1` [Compound 15] the “HepG2 cell TD50” value [2] was 23 µg/mL.

In the case of `C[P](C)(C)=[Au][S]c1ccc(C(N)=O)cn1` [Compound 16], the “HepG2 cell TD50” value [2] is reported as 17 µg/mL.

For `COc1ccc([S][Au]=[P](C)(C)C)cc1` [Compound 17], the “HepG2 cell TD50” value [2] was 3.5 µg/mL.

In the case of `C[P](C)(C)=[Au][S]c1ccc(F)cc1C(=O)O` [Compound 18], the “HepG2 cell TD50” value [2] is reported as 18 µg/mL.

With `CC(=O)Oc1ccc([S][Au]=[P](C)(C)C)cc1OC(C)=O` [Compound 23] the “HepG2 cell TD50” value [2] was 2 µg/mL.

For `C[P](C)(C)=[Au][S]c1cccc(C(=O)O)c1` [Compound 25], the “HepG2 cell TD50” value [2] was 22 µg/mL.

With `C[P](C)(C)=[Au][S]c1ccc(C(=O)O)cc1` [Compound 26] the “HepG2 cell TD50” value [2] was 13 µg/mL.

In the case of `C[P]1(=[Au][S]c2ccccc2C(=O)O)CCCCC1` [Compound 27], the “HepG2 cell TD50” value [2] is reported as 22 µg/mL.

With `C[P]1(=[Au][S]c2ccccc2C(=O)O)CCCC1` [Compound 28] the “HepG2 cell TD50” value [2] was 11 µg/mL.

For `C[P]1(=[Au][S]c2ccccc2C(=O)O)CCOCC1` [Compound 29], the “HepG2 cell TD50” value [2] was 35 µg/mL.

For `C[P]1(=[Au][S]c2ccc(F)cc2C(=O)O)CCCCC1` [Compound 30], the “HepG2 cell TD50” value [2] was 19 µg/mL.

In the case of `C[P]1(=[Au][S]c2nnn[nH]2)CCCCC1` [Compound 31], the “HepG2 cell TD50” value [2] is reported as 45 µg/mL.

With `C[P]1(=[Au][S]c2nnn[nH]2)CCCC1` [Compound 32] the “HepG2 cell TD50” value [2] was 11 µg/mL.

With `Cn1nnnc1C[S][Au]=[P](C)(C)C` [Compound 33] the “HepG2 cell TD50” value [2] was 4 µg/mL.

With `C[P](C)(C)=[Au][S]c1cccc(S(C)(=O)=O)c1` [Compound 34] the “HepG2 cell TD50” value [2] was 1 µg/mL.

With `C[P](C)(C)=[Au][S]C1CCC(F)(F)CC1` [Compound 35] the “HepG2 cell TD50” value [2] was 4 µg/mL.

With `CC[P](C)(C)=[Au][S]c1ccccc1C(=O)O` [Compound 36] the “S. aureus MIC” value [3] was <0/8.

In the case of `CP1CCS(=O)(=O)CC1.[Cl][Au]` [Compound I-44, 4-Methyl-[1,4]sulfonylphosphinane gold(I) chloride], the “S. aureus MIC” value [3] is reported as 6.3 to 25 µg/mL, the “P. aeruginosa MIC” value [4] is reported as 6.3 to 50 µg/mL and the “E. coli MIC” value [5] is reported as 25 to 100 µg/mL. For the same compound, the “K. pneumoniae MIC” value [6] was 50 to 100 µg/mL.

In the case of “Dimethyl[2-(methyl)oxazole]phosphine gold(I) chloride [Compound I-50]”, the “S. aureus MIC” value [3] is reported as 1.6 to 3.1 µg/mL, the “P. aeruginosa MIC” value [4] is reported as 12.5 to 25 µg/mL and the “E. coli MIC” value [5] is reported as 6.3 to 12.5 µg/mL. For the same compound, the “K. pneumoniae MIC” value [6] was 12.5 to 25 µg/mL.

In the case of “Dimethyl[2-(methyl)thiazole]phosphine gold(I) chloride [Compound I-49]”, the “S. aureus MIC” value [3] is reported as at most 0.8 to 1.6 µg/mL, the “P. aeruginosa MIC” value [4] is reported as 25 µg/mL and the “E. coli MIC” value [5] is reported as 6.3 to 12.5 µg/mL. The “K. pneumoniae MIC” value [6] was 12.5 to 25 µg/mL.

From patent US20180360856A1, “ANTI-BACTERIAL COMPOUNDS” (Auspherix Limited, priority 2015, published 2018)
